Laboratory results taken from publication PMC10400562, “Label-free measurement of antimicrobial peptide interactions with lipid vesicles and nanodiscs using microscale thermophoresis” (Scientific Reports, 2023).
Read-outs that look alike come from different tables or passages of the source. Non-standard residues stand in square brackets, D forms with d. Residues, ends and D or L forms follow the SMILES beside them.

Key:
E. coli ATCC 25922 = type: cell-based; settings: for E. coli MIC (ATCC 25922): ATCC 25922, 24 h
Procedure: (§1) The bacterial strains used were E. coli ATCC 25922 and S. aureus ATCC 9144. Overnight cultures and MIC assays were performed in cationic-adjusted BD BBL Mueller Hinton II Broth (MHB II, 212322, Becton, Dickson and Company, Sparks, MD, USA).
(§2) The MICs for 1–5 were determined using the CLSI M07-A9 guidelines. Working solutions were prepared in double distilled water containing max. 1% DMSO. A concentration range between 256–0.25 µg/mL was tested for each peptide. The bacterial inoculum was 1 × 10^6 cells/mL and incubated 1:1 with each test compound in a polypropylene 96-well round-bottom plate (655209, Greiner Bio-One, Kresmmuenster, Austria). Each MIC test was performed in three biological replicates, consisting of four technical replicates. Positive controls (without antibiotics) and negative controls (without bacteria) were included for each technical replicate. The reference antibiotic erythromycin was included to assure quality control. The plates were incubated for 24 h at 37 °C. The MIC value was defined as the lowest concentration of compound resulting in no visible bacterial growth.

S. aureus ATCC 9144 = type: cell-based; settings: for S. aureus MIC (ATCC 9144): ATCC 9144, 24 h
Procedure: as §1, §2

[1] = Label-free MST, peptide binding to SMA nanodiscs; settings: for Kd: label-free MST, SMA nanodiscs (anionic belt), 2500 nM AMP, apparent KD dominated by interaction with SMA polymer, mean ± SD of triplicates; for SMA KP, DMPC (MST) / SMA KP, DMPC/PG (MST): partition coefficient from initial fluorescence on MST instrument, SMA nanodiscs, hyperbolic fit, ± SD of triplicate fits
Procedure: The MST data for two nanodisc types, SMA and SMA-QA, were evaluated using the same methodology as the vesicle data, with FHot taken during the TRIC, and Fnorm plotted against log[lipid] and fit to Eq. (6).
The DMPC, and DMPC with 5% DMPG 21 mM vesicle stocks were used for the nanodisc preparation. The stocks were combined with an 8% SMA stock solution to yield a final SMA concentration of 1% for SMA nanodiscs. The stocks were combined with a 100 mg/mL SMA-QA stock to yield a final lipid:SMA-QA w/w ratio of 1:1.5. The combined SMA/SMA-QA and lipid mixture were incubated at room temperature overnight and purified by SEC. Fractions containing SMA/SMA-QA discs were concentrated using centrifugation filters. Total lipid concentration was determined by ^31P NMR (Figs. S4–S7). Nanodisc size was confirmed using a Malvern Zetasizer Nano ZS (Malvern Panalytical Ltd, Malvern, United Kingdom).
All MST measurements were conducted on a NanoTemper Monolith NT. Labelfree instrument, using Monolith NT. Labelfree standard treated zero background capillaries.
A dilution series of vesicles/nanodiscs was prepared from 3 mM to 100 nM lipid concentrations, comprising 15 discrete samples, and an additional zero lipid sample, for a total of 16 lipid concentrations. Final MST samples were prepared as a combination of 25 µL lipid solution and 25 µL 5 µM peptide solution (Table S1 in the Supporting Information).
MST measurements were conducted with excitation power set to 15%, with the MST power set to high. Laser time settings were: 3 s pre-laser, 30 s on time, and 3 s after heating. FHot was taken from the T-jump period after 1.5 s and FCold taken in the second prior to IR laser activation. For the evaluation of KP, the initial fluorescence was taken as the value reported during the period before the application of the laser. The MST response and initial fluorescence were extracted directly as a text file for further processing in MATLAB.
In a typical binding experiment that yields a sigmoidal curve, the Hill equation can be fitted to yield KD:[66]6 y=y0+EMaxLipid^n/KDn+Lipid^n where y is the MST response, y0 is the MST response of the AMP in an aqueous solution (i.e., in the absence of lipids), n is the Hill coefficient, and EMax is the maximal effect of the tested substrate. The removal of outlying MST response points was necessary. Erroneous points were identified by poor MST trace shapes or higher than expected initial fluorescence that was absent in the other replicates or subsequent points, but otherwise no further treatment of data was necessary. In all instances the MST response was plotted against log lipid concentration in nM and fit to Eq. (6).
The Kp of a molecule can be determined experimentally by observing changes in fluorescent intensity in the presence of an increasing concentration of lipid, and fitting to Eq. (8)[43].8 I/Iaq=1+KpVmLipidIL/Iaq/1+KPVmLipid
In Eq. (8) the fluorescence intensity of the AMP (I) is normalised to the fluorescence intensity of the AMP in an aqueous environment (Iaq), Vm is the molar volume of the lipids and IL is the fluorescence intensity of the AMP in the lipidic environment. For Vm, the average molar volume of the lipid composition is used. In the case of the DMPC only environments it is taken as the Vm of DMPC (1.023 nm^3), and in the DMPC-DMPG mixture it is the weighted average relative to the composition used (Vm DMPG = 0.997 nm^3)[54].

[2] = read-out: SMA KD, DMPC/PG (MST)

Row | SMILES | E. coli MIC (ATCC 25922) (E. coli ATCC 25922) [µg/mL] | S. aureus MIC (ATCC 9144) (S. aureus ATCC 9144) [µg/mL] | Kd ([1]; read-out: SMA KD, DMPC (MST)) [nM] | Kd [1, 2] [nM] | SMA KP, DMPC (MST) [1] | SMA KP, DMPC/PG (MST) [1] | antimicrobial activity against tested strain (E. coli ATCC 25922; E. coli ATCC 25922, statement in text) | antimicrobial activity against tested strain (S. aureus ATCC 9144; S. aureus ATCC 9144, statement in text)
1 | N=C(N)NCCC[C@@H]1NC(=O)[C@H](CCCNC(=N)N)NC(=O)[C@H](Cc2c[nH]c3ccccc23)NC(=O)[C@H](Cc2c[nH]c3ccccc23)NC(=O)[C@H](Cc2c[nH]c3ccccc23)NC(=O)[C@H](CCCNC(=N)N)NC1=O [compound 1] (cyclo(WWWRRR)) | 8 | 4 | 1200 ± 500 | 2200 ± 400 | 10.40 ± 1.52 × 10^3 | 10.27 ± 2.13 × 10^3 | – | –
2 | N=C(N)NCCC[C@@H]1NC(=O)[C@H](Cc2c[nH]c3ccccc23)NC(=O)[C@H](CCCNC(=N)N)NC(=O)[C@H](Cc2c[nH]c3ccccc23)NC(=O)[C@H](CCCNC(=N)N)NC(=O)[C@H](Cc2c[nH]c3ccccc23)NC1=O [compound 2] (cyclo(WRWRWR)) | 32 | 32 | 2700 ± 500 | 5600 ± 1100 | 9.72 ± 2.69 × 10^3 | 3.57 ± 0.36 × 10^3 | – | –
3 | NCCCC[C@@H]1NC(=O)[C@H](CCCCN)NC(=O)[C@H](Cc2c[nH]c3ccccc23)NC(=O)[C@H](Cc2c[nH]c3ccccc23)NC(=O)[C@H](Cc2c[nH]c3ccccc23)NC(=O)[C@H](CCCCN)NC1=O [compound 3] (cyclo(WWWKKK)) | 8 | 32 | 1100 ± 300 | 1100 ± 500 | 2.34 ± 1.40 × 10^3 | 4.21 ± 0.43 × 10^3 | – | –

Now from value to compound, other results behind:

Row | E. coli MIC (ATCC 25922) (E. coli ATCC 25922) [µg/mL] | S. aureus MIC (ATCC 9144) (S. aureus ATCC 9144) [µg/mL] | Kd ([1]; read-out: SMA KD, DMPC (MST)) [nM] | Kd [1, 2] [nM] | SMA KP, DMPC (MST) [1] | SMA KP, DMPC/PG (MST) [1] | SMILES | antimicrobial activity against tested strain (E. coli ATCC 25922; E. coli ATCC 25922, statement in text) | antimicrobial activity against tested strain (S. aureus ATCC 9144; S. aureus ATCC 9144, statement in text)
4 | 64 | 128 | 8600 ± 500 | 9800 ± 300 | 0.70 ± 0.11 × 10^3 | 1.14 ± 0.12 × 10^3 | NCCCC[C@@H]1NC(=O)[C@H](Cc2c[nH]c3ccccc23)NC(=O)[C@H](CCCCN)NC(=O)[C@H](Cc2c[nH]c3ccccc23)NC(=O)[C@H](CCCCN)NC(=O)[C@H](Cc2c[nH]c3ccccc23)NC1=O [compound 4] (cyclo(WKWKWK)) | – | –
5 | > 256 | > 256 | – | – | 6.98 ± 1.24 × 10^3 | 4.75 ± 0.32 × 10^3 | CC(C)C[C@@H]1NC(=O)[C@@H](CCCNC(=N)N)NC(=O)[C@H](CCCCN)NC(=O)[C@H](CC(N)=O)NC(=O)[C@@H](Cc2c[nH]c3ccccc23)NC(=O)[C@H](Cc2c[nH]c3ccccc23)NC1=O [compound 5] (cyclo(LW[dW]NK[dR])) | inactive | inactive
